Among the test systems are MDA-MB-231 breast; MDA-MB-435; MDA-N; HS 578T breast.
Common to all, as to test: NCI tumour cell line growth inhibition, 48 h

Several values for one entry are separate records, joined by “and”; a condition that tells them apart may be missing. Identical values can stand only once.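 Dose response: 5 concentrations. Exposure: 48 h. Format: 96-well plates. Endpoint: linear interpolation; highest concentration if not reached. The concentration for 50% growth inhibition is given as GI50. TGI: concentration producing complete growth inhibition.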

For the compound `NS(=O)(=O)c1ccc(N=Nc2c(O)c(C(=O)O)cc3ccccc23)cc1`, the TGI in the test with MDA-MB-231 breast, in the test on MDA-MB-435, in the test on MDA-N and in the test on HS 578T breast was more than 100 µM in each case.

As for `NC(N)=N/N=C/c1c(Cl)cccc1Cl`, the GI50 in the test on MDA-MB-435 is 15.3 µM; in the test with HS 578T breast it was 18 µM. Also, the TGI in the test on MDA-MB-435 was 31.1 µM; in the test with HS 578T breast it was 78 µM.

Consider `CCn1c(O)c(/C=N/NC(=O)C(C)c2ccc(CC(C)C)cc2)sc1=S` (stereo unspecified), for which, in the test on MDA-MB-231 breast, the GI50 was 0.515 µM and the TGI was 7.59 µM. Further, in the test with HS 578T breast, the GI50 is 0.294 µM and the TGI was more than 40.5 µM.

For `NC1CCN(Cc2ccccc2)CC1`, the GI50 with MDA-MB-231 breast and with MDA-MB-435 was more than 100 µM in each case. Also, the TGI in the test on MDA-MB-231 breast and with MDA-MB-435 was more than 100 µM in each case.

As to `CCCC(=O)Nc1cn(COC)c(C(=O)N2C[C@@H]3C[C@]34C2=CC(=O)c2[nH]cc(C)c24)n1`, the GI50 with MDA-MB-231 breast was 19.9 µM; in the test on MDA-MB-435, 11.1 µM; in the test with MDA-N it was 12.7 µM; in the test with HS 578T breast, 12.2 µM. The TGI is 27 µM and 51.1 µM in the test with MDA-MB-231 breast; 27.4 µM and 27.1 µM in the test with MDA-MB-435; 19.3 µM and 31.3 µM in the test with MDA-N; 44.6 µM and 41.2 µM with HS 578T breast.

Turning to `NC(N)=NCCCC(=O)O`, the TGI in the test with MDA-MB-231 breast, in the test on MDA-MB-435, with MDA-N and in the test on HS 578T breast was more than 100 µM throughout.

As for `NNC(=O)CNc1cccc(Br)c1`, the TGI in the test with MDA-MB-231 breast, in the test with MDA-MB-435, with MDA-N and with HS 578T breast was more than 100 µM throughout.

`CCN1CCN(c2cc(C)c3cc(NC(=O)c4ccc(OC)c(OC)c4)ccc3n2)CC1`: the GI50 with MDA-MB-231 breast is 11.2 µM; in the test with MDA-MB-435 it was 0.448 µM; with HS 578T breast, 8.55 µM. Besides, the values for the TGI in the test with MDA-MB-231 breast, in the test on MDA-MB-435 and in the test with HS 578T breast were more than 100 µM, 5.56 µM and more than 74.1 µM, respectively.

Turning to `CCOc1ccc(/C=C2\N=C(c3ccc([N+](=O)[O-])cc3)OC2=O)cc1`, the TGI with MDA-MB-231 breast, with MDA-MB-435, in the test with MDA-N and with HS 578T breast was more than 100 µM throughout.

In the case of `COc1ccc2nc3ccccc3c(NCc3ccc(F)cc3)c2c1`, the GI50 in the test on MDA-MB-231 breast is 1.85 µM; with MDA-MB-435, 2.14 µM; in the test with HS 578T breast, 2.22 µM. The TGI in the test on MDA-MB-231 breast turned out to be 7.26 µM; in the test on MDA-MB-435, 8.26 µM; with HS 578T breast it was 12.1 µM.

On to `Cc1cc(N[C@@H]2CCC[C@H](Nc3ccnc4cc(Cl)ccc34)C2)nc(N2CCCCCC2)n1`, for which, in the test on MDA-MB-231 breast, the GI50 is 1.63 µM and the TGI is 3.43 µM. Further, in the test on MDA-MB-435, the GI50 is 1.79 µM and the TGI was 3.33 µM.

As to `CNCCOC(=O)/C=C1\CC[C@H]2[C@@H]([C@@H](O)C(=O)[C@@H]3[C@]2(C)CC[C@H](O)[C@]3(C)C(=O)OC)[C@H]1C`, the GI50 is 1.77 µM with MDA-MB-231 breast, 0.368 µM with MDA-MB-435 and 0.281 µM in the test on HS 578T breast. Moreover, the TGI with MDA-MB-231 breast stood at 5.91 µM; in the test on MDA-MB-435, 1.45 µM; in the test with HS 578T breast, 2.06 µM.

Turning to `O=C(Nc1cc(C(F)(F)F)cc(C(F)(F)F)c1)c1cc(Cl)ccc1O`, the GI50 in the test on MDA-MB-231 breast was 0.241 µM and 0.225 µM; with MDA-MB-435, 0.288 µM and 0.284 µM; with HS 578T breast, 0.222 µM and 0.212 µM. Also, the TGI in the test with MDA-MB-231 breast is > 2.17 µM and 2.63 µM; in the test on MDA-MB-435 it was 1.31 µM and 1.61 µM; in the test on HS 578T breast, 0.807 µM and 0.821 µM.

As for `C=CCC1(c2ccc(OC)cc2)C=CC(=O)CC1` (stereo unspecified), the TGI in the test on MDA-MB-231 breast, with MDA-MB-435, with MDA-N and with HS 578T breast was more than 100 µM in each case.

`CCOC(=O)Nc1cc2c(c(N)n1)N=C(c1ccccc1)CO2`: the results for the GI50 in the test with MDA-MB-231 breast, in the test on MDA-MB-435 and in the test on HS 578T breast were 0.691 µM, 0.0169 µM and 0.388 µM, respectively. Also, the TGI is 6.43 µM with MDA-MB-231 breast, 0.0399 µM in the test with MDA-MB-435 and more than 69.4 µM in the test on HS 578T breast.

As to `CN(C)C1CCN(C(=O)c2ccc(NC(=O)Nc3ccc(-c4nc(N5CCOCC5)c5cccn5n4)cc3)cc2)CC1`, the GI50 was 0.0491 µM in the test with MDA-MB-231 breast, 0.0403 µM in the test with MDA-MB-435 and 0.0192 µM in the test on HS 578T breast. The TGI is 11.1 µM in the test on MDA-MB-231 breast, 0.492 µM in the test on MDA-MB-435 and 0.0926 µM with HS 578T breast.

Take `Cc1nnc(Nc2ccc(NC(=O)Nc3ccc(Cl)cc3)cc2)c2ccccc12`: the GI50 in the test on MDA-MB-231 breast was 2.38 µM; in the test on MDA-MB-435, 1.73 µM; in the test with HS 578T breast it was 2.52 µM. Besides, the figures for the TGI in the test on MDA-MB-231 breast, in the test on MDA-MB-435 and in the test on HS 578T breast were 5.94 µM, 3.43 µM and 6.4 µM, respectively.

For `O=C(NC[C@H](O)CN1CCc2ccccc2C1)c1cc(NC2COC2)ncn1`, the values for the GI50 in the test with MDA-MB-231 breast, in the test with MDA-MB-435 and in the test with HS 578T breast were 16.1 µM, 12.9 µM and 19.1 µM, respectively. The TGI in the test with MDA-MB-231 breast worked out at 46.9 µM; with MDA-MB-435, 94.1 µM; in the test on HS 578T breast, 81.4 µM.

For `O=C(Nc1ccc(Br)cc1F)c1cc(Cl)ccc1O`, the values for the GI50 in the test with MDA-MB-231 breast, in the test on MDA-MB-435 and in the test on HS 578T breast were 0.554 µM, 0.71 µM and 0.327 µM, respectively. Moreover, the TGI in the test on MDA-MB-231 breast is 5.23 µM; in the test with MDA-MB-435 it was 5.88 µM; in the test on HS 578T breast, 2.81 µM.

Consider `Cc1nc(N)sc1N=Nc1ccccc1Br`, for which the TGI amounted to 67 µM in the test with MDA-MB-231 breast, 47.9 µM with MDA-MB-435 and 64.7 µM with MDA-N.

As for `N#Cc1nn(-c2cc(=O)[nH]c3ccc(Cl)cc23)c(N)c1C#N`, the GI50 in the test on MDA-MB-231 breast is 89.8 µM; with MDA-MB-435, more than 100 µM; with HS 578T breast, more than 100 µM. Moreover, the TGI in the test with MDA-MB-231 breast, with MDA-MB-435 and in the test with HS 578T breast was more than 100 µM in each case.

Turning to `CC1CC2CCCC(O)=C2C(=O)O1` (stereo unspecified), the TGI in the test with MDA-MB-231 breast, in the test on MDA-MB-435, with MDA-N and in the test on HS 578T breast was more than 100 µM each time.

The values are drawn from PubChem BioAssay (NCI).
